# Results published in US8399478B2 (Vertex Pharmaceuticals Incorporated, priority 2006, dated 2013).
# Biological target: T1, Plk1 (Homo sapiens, UniProt P53350)
# T1 construct: in the presence of 15 nM Plk1 (A20-K338)
# Assay: Plk1 inhibition assay (radioactive-phosphate incorporation)
# Type: biochemical
# Settings: Ki(app) from initial rate data
# Description: The compounds of the present invention are evaluated as inhibitors of human PLK kinase using the following assays.
# (§1) Compounds were screened for their ability to inhibit Plk1 using a radioactive-phosphate incorporation assay. Assays were carried out in a mixture of 25 mM HEPES (pH 7.5), 10 mM MgCl2, and 1 mM DTT. […] An assay stock buffer solution was prepared containing all of the reagents listed above, with the exception of ATP and the test compound of interest. […] The plate was pre-incubated for 10 minutes at 25° C. and the reaction initiated by addition of 8 μL [γ-33 P]ATP (final concentration 50 μM).
# (§2) The reaction was stopped after 60 minutes by the addition of 100 μL 0.14M phosphoric acid. A multiscreen phosphocellulose filter 96-well plate (Millipore, Cat no. MAPHN0B50) was pretreated with 100 μL 0.2M phosphoric acid prior to the addition of 125 μL of the stopped assay mixture. The plate was washed with 4×200 μL 0.2M phosphoric acid.
# After removing mean background values for all of the data points, Ki(app) data were calculated from non-linear regression analysis of the initial rate data using the Prism software package (GraphPad Prism version 3.0cx for Macintosh, GraphPad Software, San Diego, Calif., USA).
# as §1, with “MgCl2, […],” for “MgCl2,”, “and 2” for “and 1”, “μL [γ-33P]ATP” for “μL [γ-33 P]ATP”, “concentration 100” for “concentration 50”
# as §2, with “90” for “60”
# T1 sequence (P53350 20-338): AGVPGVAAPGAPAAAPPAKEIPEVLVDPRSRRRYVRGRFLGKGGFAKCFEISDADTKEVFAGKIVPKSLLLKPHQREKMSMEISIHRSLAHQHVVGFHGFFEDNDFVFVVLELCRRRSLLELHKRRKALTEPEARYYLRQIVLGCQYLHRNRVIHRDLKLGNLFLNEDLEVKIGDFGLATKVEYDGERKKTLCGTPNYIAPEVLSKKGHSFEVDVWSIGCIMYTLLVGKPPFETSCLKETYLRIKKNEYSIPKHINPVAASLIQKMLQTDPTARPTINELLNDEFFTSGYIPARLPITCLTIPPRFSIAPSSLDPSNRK
row,Ki,SMILES
1,< 100 nM,"CC(Oc1cc(-c2cnn3ccccc23)sc1C(N)=O)c1ccccc1Cl (stereo not shown) [Compound I-2, 3-[1-(2-Chloro-phenyl)-ethoxy]-5-pyrazolo[1,5-a]pyridin-3-yl-thiophene-2-carboxamide]"
2,< 100 nM,"COc1cnc2[nH]cc(-c3cc(OC(C)c4ccccc4Cl)c(C(N)=O)s3)c2c1 (stereo not shown) [Compound I-3, 3-[1-(2-Chloro-phenyl)-ethoxy]-5-(5-methoxy-1H-pyrrolo[2,3-b]pyridin-3-yl)-thiophene-2-carboxyamide]"
3,> 1000 nM,CC(Oc1cc(-c2nnc3ccc(N)nn23)sc1C(N)=O)c1ccccc1Cl (stereo not shown) [Compound I-4]
4,100 to 1000 nM,"CC(Oc1cc(-c2cnc3[nH]ccc3c2)sc1C(N)=O)c1ccccc1Cl (stereo not shown) [Compound I-5, 3-[1-(2-Chloro-phenyl)-ethoxy]-5-(1H-pyrrolo[2,3-b]pyridin-5-yl)-thiophene-2-carboxamide]"
5,< 100 nM,"C=Cc1cnc2[nH]cc(-c3cc(OC(C)c4ccccc4Cl)c(C(N)=O)s3)c2c1 (stereo not shown) [Compound I-6, 3-(1-(2-chlorophenyl)ethoxy)-5-(5-vinyl-1H-pyrrolo[2,3-b]pyridin-3-yl)thiophene-2-carboxamide]"
6,< 100 nM,"CNC(=O)c1ccc2ncc(-c3cc(OC(C)c4ccccc4Cl)c(C(N)=O)s3)n2c1 (stereo not shown) [Compound I-7, 3-(5-carbamoyl-4-(1-(2-chlorophenyl)ethoxy)thiophen-2-yl)-N-methylimidazo[1,2-a]pyridine-6-carboxamide]"
7,< 100 nM,"CC(Oc1cc(-c2cnc3ccc(F)cn23)sc1C(N)=O)c1ccccc1Cl (stereo not shown) [Compound I-8, 3-(1-(2-chlorophenyl)ethoxy)-5-(6-fluoroimidazo[1,2-a]pyridin-3-yl)thiophene-2-carboxamide]"
8,< 100 nM,CC(Oc1cc(-c2cnc3cnccn23)sc1C(N)=O)c1ccccc1Cl (stereo not shown) [Compound I-9]
9,< 100 nM,"CC(Oc1cc(-c2cnc3ccc(C(F)(F)F)cn23)sc1C(N)=O)c1ccccc1Cl (stereo not shown) [Compound I-10, 3-(1-(2-chlorophenyl)ethoxy)-5-(6-(trifluoromethyl)imidazo[1,2-a]pyridin-3-yl)thiophene-2-carboxamide]"
10,< 100 nM,"CNC(=O)c1ccn2c(-c3cc(OC(C)c4ccccc4Cl)c(C(N)=O)s3)cnc2c1 (stereo not shown) [Compound I-11, 3-(5-carbamoyl-4-(1-(2-chlorophenyl)ethoxy)thiophen-2-yl)-N-methylimidazo[1,2-a]pyridine-7-carboxamide]"
11,< 100 nM,"CC(Oc1cc(-c2cnc3cccnn23)sc1C(N)=O)c1ccccc1Cl (stereo not shown) [Compound I-12, 3-(1-(2-chlorophenyl)ethoxy)-5-(imidazo[1,2-b]pyridazin-3-yl)thiophene-2-carboxamide]"
12,< 100 nM,"CC(Oc1cc(-c2cnc3cc(C(F)(F)F)ccn23)sc1C(N)=O)c1ccccc1Cl (stereo not shown) [Compound I-13, 3-(1-(2-chlorophenyl)ethoxy)-5-(7-(trifluoromethyl)imidazo[1,2-a]pyridin-3-yl)thiophene-2-carboxamide]"
13,< 100 nM,"CCOC(=O)Nc1ccn2c(-c3cc(OC(C)c4ccccc4Cl)c(C(N)=O)s3)cnc2c1 (stereo not shown) [Compound I-14, Ethyl 3-(5-carbamoyl-4-(1-(2-chlorophenyl)ethoxy)thiophen-2-yl)imidazo[1,2-a]pyridin-7-ylcarbamate]"
14,< 100 nM,"CC(Oc1cc(-c2cnc3cc(N)ccn23)sc1C(N)=O)c1ccccc1Cl (stereo not shown) [Compound I-15, 5-(7-aminoimidazo[1,2-a]pyridin-3-yl)-3-(1-(2-chlorophenyl)ethoxy)thiophene-2-carboxamide]"
15,> 1000 nM,"CNC(=O)c1sc(-c2cnc3ccccn23)cc1OC(C)c1ccccc1Cl (stereo not shown) [Compound I-16, 3-(1-(2-chlorophenyl)ethoxy)-5-(imidazo[1,2-a]pyridin-3-yl)-N-methylthiophene-2-carboxamide]"
16,< 100 nM,"CCOC(=O)N(C)c1ccn2c(-c3cc(OC(C)c4ccccc4Cl)c(C(N)=O)s3)cnc2c1 (stereo not shown) [Compound I-17, Ethyl 3-(5-carbamoyl-4-(1-(2-chlorophenyl)ethoxy)thiophen-2-yl)imidazo[1,2-a]pyridin-7-yl(methyl)carbamate]"
17,< 100 nM,"COC(=O)N(C)c1ccn2c(-c3cc(OC(C)c4ccccc4Cl)c(C(N)=O)s3)cnc2c1 (stereo not shown) [Compound I-18, Methyl 3-(5-carbamoyl-4-(1-(2-chlorophenyl)ethoxy)thiophen-2-yl)imidazo[1,2-a]pyridin-7-yl(methyl)carbamate]"
18,< 100 nM,"COC(=O)Nc1ccn2c(-c3cc(O[C@@H](C)c4ccccc4Cl)c(C(N)=O)s3)cnc2c1 [Compound I-19, (S)-methyl 3-(5-carbamoyl-4-(1-(2-chlorophenyl)ethoxy)thiophen-2-yl)imidazo[1,2-a]pyridin-7-ylcarbamate]"
19,< 100 nM,"CCOC(=O)Nc1ccn2c(-c3cc(O[C@@H](C)c4ccccc4Cl)c(C(N)=O)s3)cnc2c1 [Compound I-20, (S)-ethyl 3-(5-carbamoyl-4-(1-(2-chlorophenyl)ethoxy)thiophen-2-yl)imidazo[1,2-a]pyridin-7-ylcarbamate]"
20,< 100 nM,"CC[C@H](Oc1cc(-c2cnc3cc(NC(=O)OC)ccn23)sc1C(N)=O)c1ccccc1Cl [Compound I-21, (S)-methyl 3-(5-carbamoyl-4-(1-(2-chlorophenyl)propoxy)thiophen-2-yl)imidazo[1,2-a]pyridin-7-ylcarbamate]"
21,< 100 nM,"CCOC(=O)Nc1ccn2c(-c3cc(O[C@@H](CC)c4ccccc4Cl)c(C(N)=O)s3)cnc2c1 [Compound I-22, (S)-ethyl 3-(5-carbamoyl-4-(1-(2-chlorophenyl)propoxy)thiophen-2-yl)imidazo[1,2-a]pyridin-7-ylcarbamate]"
22,< 100 nM,"CCOC(=O)Nc1ccn2c(-c3cc(OC(C)(C)c4ccccc4Cl)c(C(N)=O)s3)cnc2c1 [Compound I-25, Ethyl 3-(5-carbamoyl-4-(2-(2-chlorophenyl)propan-2-yloxy)thiophen-2-yl)imidazo[1,2-a]pyridin-7-ylcarbamate]"
